Legend:
[1] = test system: apple stalk slices; test: rooting regeneration on apple stalk slices with elicitors; format: cell-based; conditions: roots, apple, 1 μM indolebutyric or indoleacetic acid, 1 or 3 days
Protocol: The effect of the elicitors on rooting regeneration on apple stalk slices was studied. The stalk slices were incubated on medium with elicitors in combination with a sub-optimal auxin concentration (1 μM indolebutyric acid or 1 μM indoleacetic acid) which were added for 1 or 3 days to the plant tissue for testing. The increase was measured in the number of regenerated roots compared to the auxin control.

[2] = test system: cut flowers (carnations); test: retarding the aging of cut flowers; format: in vivo, carnation
Protocol: The DMF was evaporated and the remaining solid was dissolved in methanol and filtered. Diluted hydrochloric acid was added to the methanol solution. After 2 hours at room temperature the solvent was evaporated and G-A-A was obtained.

[3] = test system: apple; test: roots per tissue fragment in apple; format: cell-based
Description: An apple IAA may induce a maximum of 3.5 roots per tissue fragment, while IAA-N-BSA induces a maximum of 8 roots per tissue fragment. Very recalcitrant trees like summer oak and cork oak can be rooted to a much higher percentage than with any of the conventionally applied rooting powders. The compounds described in EXAMPLE 3 and together with elicitors in Table 1 show similar effects.

[4] = test system: apple and rose; test: rooting in apple and rose, stem-disk method; format: cell-based; conditions: rooting powder, stem-disks
Protocol: The auxin compounds were tested with respect to rooting in apple and rose
b) Tests are performed by the stem-disk method as published by Van der Krieken et al., Plant Cell Reports (1993), vol. 12, 203-206, in which the number of roots of a large number of stem-disks cut from a particular plant are counted and treated with rooting powder containing in this case the compounds described.

[5] = test system: rose, chrysanthemum, carnation; test: rooting powder comparison, average over species; format: in vivo; conditions: for average category: average over the species tested; for overall assessment of rooting powders from Table 2: in vivo
Description: (§1) d) In Table 2 standard indol butyric acid (IBA), which is the active component in most currently used rooting powders, is compared with indol hexanolic acid (IHA) and two BSA adducts, both—coupled, namely IBA and indole acetic acid (BSA-N-IAA). The effect on rooting and the plant development (stem growth, outgrowth of new shoots, synchronicity of growth of a population of plants) were inter alia factors determining the place in the categories which ranged from 1 to 6. The compounds with the best relative overall effect on rooting and development were placed in category I. Rooting and subsequent development of scions for different types of herbaceous and woody plants differs largely for those types of plants. A rose cultivar, “enermus stur cinq”, was used as an example of a recalcitrant woody plant. The chrysanthemum species “regan” is an example of an easy to root herbaceous plant.

[6] = test system: carnation; test: rooting powder comparison, rooting and development of scions, carnation; format: in vivo; parameters: key: 1: The compounds with the best relative overall effect on rooting and development were placed in category I; categories which ranged from 1 to 6
Description: as §1

[7] = test system: apple and rose; test: root induction in apple and rose; format: in vivo
Description: It is also possible to offer a hormone precursor, which is converted into an active hormone by metabolic processes. Indole-3-hexanoic acid (I-H-A) is converted by two beta-oxidation steps (the enzymes therefor are present in the plant) into the auxin indole-3-acetic acid (I-A-A). I-H-A is thus a special form of a slow-release source.

[8] = test system: chrysanthemum; test: rooting powder comparison, rooting and development of scions, chrysanthemum; format: in vivo; parameters: key: 1: The compounds with the best relative overall effect on rooting and development were placed in category I; categories which ranged from 1 to 6
Description: as §1

[9] = test system: rose; test: rooting powder comparison, rooting and development of scions, rose; format: in vivo; parameters: key: 1: The compounds with the best relative overall effect on rooting and development were placed in category I; categories which ranged from 1 to 6
Description: as §1

[10] = test system: tissue explants of rose; test: shoot formation on tissue explants of rose; format: cell-based
Protocol: It was also observed that tissue explants of rose when treated with IBA (normal addition) or IHA, respectively, formed about 50 times more shoots (2 shoots versus 100 per 20 tissue explants) in the latter case.
In the studies for new applications of PGRs and/or elicitors, which were performed within the framework of the present invention, several new and unexpected observations were made. […] Furthermore, the inventors established that elicitors do cause a statistically significant growth retardation of all tissues, as can be illustrated for rose shoots. This effect was enhanced by PGR(s), in casu antigibberelins, i.e. paclobutrasol. […] Finally the observation was made that when tissue explants of rose were treated with respectively IBA (normal addition) or IHA, in the last case about 50 times more shoots were formed (2 shoots versus 100 per 20 tissue explants).

[11] = test system: Brassica napens; test: microspore embryogenesis; format: cell-based; conditions: in combination with colchicine
[12] = test system: Carnations (cultivar Miledy); test: senescence of carnations after simulated dry transport; format: in vivo, carnation
Protocol: The flowers were treated for one day with silver thiosulfate (STS), t-BOC-AOA, or with water in the case of controls. The flowers were then subjected to simulated dry transport conditions: 4 days at 8° C. and a relative humidity of 75%. The bottom 5 cm of each stem was then removed, and the flowers were incubated on water for 2 hours at 8° C. and a relative humidity of 75%. The flowers were then transferred to a climate room with standard flower development conditions (20° C., relative humidity of 75%, light level of 1000 lux). Senescence of the flowers was then determined every day. If flowers started wilting (mostly at the edges of the petals) or changed color they were no longer in the category of “flowers in a perfect stage” (see Table 3).

[13] = test system: plantroots; test: root induction by chemically modified auxins on various plants; conditions: in vivo
Description: Attaching IAA to BSA is done to increase the amount of IAA administered to the roots. Up to 32 IAA molecules can be attached to BSA in 2 different ways. Either as N-conjugate of IAA or as C-conjugate. Upon addition of the IAA-BSA to plantroots, the IAA is split off in the root and leads to the availability of IAA during a longer period allowing the root tissue to become sensitive.

[14] = chrys. regan (easy to root herbaceous plant)
[15] = rose enermus stur cinq (recalcitrant woody plant)
[16] = 7 d after the start of the experiment
[17] = 8 d after the start of the experiment
[18] = 9 d after the start of the experiment
[19] = 10 d after the start of the experiment
[20] = 11 d after the start of the experiment
[21] = 12 d after the start of the experiment
[22] = 13 d after the start of the experiment
[23] = 14 d after the start of the experiment
[24] = 15 d after the start of the experiment
[25] = 16 d after the start of the experiment
[26] = 17 d after the start of the experiment
[27] = 18 d after the start of the experiment
[28] = 19 d after the start of the experiment
[29] = 20 d after the start of the experiment
[30] = 21 d after the start of the experiment
[31] = 22 d after the start of the experiment

For `CC(=O)Nc1ccc(O)cc1` [4-acetamidophenol], the “increased regeneration in relation to control (auxin alone)” value (shortened to “increased regeneration in relation”) ([1]; elicitor 1 μM) was 75%.
`CC(C)(NC(=O)CCC(=O)NC(C)(C)C(=O)O)C(=O)O` [A-S-A] was tested, and the “activity in retarding the aging of the flowers, times relative to non-modified AIB” value ([2]; in water, concentration 5×10^−5 to 10^−3 M, carnations) was 50.
With `O=C(O)Cc1c[nH]c2ccccc12` [IAA, indole-3-acetic acid, reference compound] the “maximum of roots per tissue fragment” value [3] was 3.5 roots per tissue fragment.
With `CC(C)(NC(=O)CCCc1c[nH]c2ccccc12)C(=O)O` [IBA-AIB] the “rooting compared with standard hormone treatment / IBA alone” value [4] was “more active than the standard hormone treatment”.
`O=C(O)CCCCCc1c[nH]c2ccccc12` [IHA, Indole-3-hexanoic acid] was tested, and the average category [5] was 1.33, the “overall assessment of rooting powders from Table 2” value [5] was “very generally applicable and very effective” and the “category of relative overall effect on rooting and plant development” value (from here on “category of relative overall effect”) ([6]; carnation m. brilj.) was 1. For the same compound, the “category of relative overall effect” value ([6]; carnation tempo) was 2, the “activity in root induction relative to I-A-A” value [7] was “thirty times more active than I-A-A” and the “category of relative overall effect” value [8, 14] was 2. The “category of relative overall effect” value ([8]; chrys. snowdon) was 1, the “category of relative overall effect” value [9, 15] was 1 and the “category of relative overall effect” value ([9]; rose n. brier) was 1. The shoots formed [10] was 100 shoots per 20 tissue explants and the “times more shoots than with IBA” value [10] was “about 50”.
In the case of `C=CC(C)(C)OC[C@H]1O[C@H](O[C@@H]2C3=C([C@H](C)COC(C)=O)C[C@H](O)[C@]3(C)/C=C3/[C@@H](COC)CC[C@H]3[C@@H](C)[C@H]2O)[C@H](O)[C@@H](OC(C)=O)[C@@H]1O` [fusicocine], the “increased regeneration in relation” value ([1]; elicitor 0.01 μM) is reported as 75%.
With `CC/C=C\C[C@H]1C(=O)CC[C@@H]1CC(=O)O` [jasmonic acid] the “increased regeneration in relation” value ([1]; elicitor 0.01 μM) was 210%.
In the case of `CCCCCCCCC(=O)O` [nonanoic acid], the “increase in microspore embryogenesis” value [11] is reported as 125% and the “increased regeneration in relation” value ([1]; elicitor 0.1-1 μM) is reported as 300%.
In the case of `CC(C)(C)OC(=O)NOCC(=O)O` [t-Boc-AOA, tertiair-butyloxycarbonylaminooxyacetic acid], the “Percentage of flowers in the perfect stage after treatment” value (“Percentage of flowers” below) [12, 16] is reported as 100%, the “Percentage of flowers” value [12, 17] is reported as 100% and the “Percentage of flowers” value [12, 18] is reported as 100%. The “Percentage of flowers” value [12, 19] was 100%, the “Percentage of flowers” value [12, 20] was 100% and the “Percentage of flowers” value [12, 21] was 100%. For the same compound, the “Percentage of flowers” value [12, 22] was 100%, the “Percentage of flowers” value [12, 23] was 100% and the “Percentage of flowers” value [12, 24] was 100%. The “Percentage of flowers” value [12, 25] was 100%, the “Percentage of flowers” value [12, 26] was 85% and the “Percentage of flowers” value [12, 27] was 75%. The “Percentage of flowers” value [12, 28] was 53%, the “Percentage of flowers” value [12, 29] was 30% and the “Percentage of flowers” value [12, 30] was 4%. The “Percentage of flowers” value [12, 31] was 0% and the “delaying flower senescence, compared with STS” value ([12]; summary of Table 3) was “generally comparable to or superior to STS”.
With `O=C(OC[C@H]1O[C@@H](OC(=O)c2cc(O)c(O)c(OC(=O)c3cc(O)c(O)c(O)c3)c2)[C@H](OC(=O)c2cc(O)c(O)c(OC(=O)c3cc(O)c(O)c(O)c3)c2)[C@@H](OC(=O)c2cc(O)c(O)c(OC(=O)c3cc(O)c(O)c(O)c3)c2)[C@@H]1OC(=O)c1cc(O)c(O)c(OC(=O)c2cc(O)c(O)c(O)c2)c1)c1cc(O)c(O)c(OC(=O)c2cc(O)c(O)c(O)c2)c1` [tannic acid] the “increased regeneration in relation” value ([1]; elicitor 1 μM) was 225%.
With “IAA-C-BSA: indoleacetic acid-C-conjugate with BSA” the “effectiveness in root induction, comparison” value [13] was “somewhat less effective in root induction as IAA-N-BSA, but still better than IAA alone”.
With “IAA-N-BSA: indoleacetic acid-N-conjugate with BSA” the average category [5] was 1.8, the “overall assessment of rooting powders from Table 2” value [5] was “especially suited for recalcitrant plants” and the “category of relative overall effect” value ([6]; carnation m. brilj.) was 1. For the same compound, the “category of relative overall effect” value ([6]; carnation tempo) was 3, the “category of relative overall effect” value [8, 14] was 1 and the “category of relative overall effect” value ([8]; chrys. snowdon) was 2. The “category of relative overall effect” value [9, 15] was 1, the “category of relative overall effect” value ([9]; rose n. brier) was 3 and the “maximum of roots per tissue fragment” value [3] was 8 roots per tissue fragment.
“IBA-N-BSA: N-conjugate with BSA made with IBA instead of IAA” was tested, and the average category [5] was 2.0, the “category of relative overall effect” value ([6]; carnation m. brilj.) was 1 and the “category of relative overall effect” value ([6]; carnation tempo) was 3. The “category of relative overall effect” value [8, 14] was 4, the “category of relative overall effect” value ([8]; chrys. snowdon) was 1 and the “category of relative overall effect” value [9, 15] was 2. For the same compound, the “category of relative overall effect” value ([9]; rose n. brier) was 1.
With “glucose-acetate-amino-oxyacetic acid [G-A-A]” the effect against aging ([2]; carnation) was “effective means against aging”.
For “indole butyric acid [IBA, reference compound]”, the average category [5] was 2.25, the “category of relative overall effect” value [8, 14] was 4 and the “category of relative overall effect” value ([8]; chrys. snowdon) was 1. The “category of relative overall effect” value [9, 15] was 3, the “category of relative overall effect” value ([9]; rose n. brier) was 1 and the shoots formed [10] was 2 shoots per 20 tissue explants.
For “silver thiosulfate [STS, reference compound]”, the “Percentage of flowers” value [12, 16] was 100%, the “Percentage of flowers” value [12, 17] was 100% and the “Percentage of flowers” value [12, 18] was 100%. The “Percentage of flowers” value [12, 19] was 100%, the “Percentage of flowers” value [12, 20] was 100% and the “Percentage of flowers” value [12, 21] was 100%. The “Percentage of flowers” value [12, 22] was 100%, the “Percentage of flowers” value [12, 23] was 100% and the “Percentage of flowers” value [12, 24] was 100%. For the same compound, the “Percentage of flowers” value [12, 25] was 100%, the “Percentage of flowers” value [12, 26] was 88% and the “Percentage of flowers” value [12, 27] was 65%. For the same compound, the “Percentage of flowers” value [12, 28] was 8%, the “Percentage of flowers” value [12, 29] was 0% and the “Percentage of flowers” value [12, 30] was 0%. The “Percentage of flowers” value [12, 31] was 0%.

Source: patent US20030027722A1, “Influencing the activity of plant growth regulators” (priority 1998, published 2003)
